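Test compounds were applied to cells in 96-well plates for 48 hours at 5 doses. At the TGI there is no net growth.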
Assays:
Assay in all cases: NCI-60 cell line screen, 48 h
786-0 renal = system: 786-0 renal
A498 renal = system: A498 renal
A549 NSCLC = system: A549 NSCLC
CAKI-1 renal = system: CAKI-1 renal
CCRF-CEM leukemia = system: CCRF-CEM leukemia
COLO 205 colon = system: COLO 205 colon
DLD-1 colon = system: DLD-1 colon
DMS 114 small cell lung = system: DMS 114 small cell lung
DMS 273 small cell lung = system: DMS 273 small cell lung
EKVX NSCLC = system: EKVX NSCLC
HCC-2998 colon = system: HCC-2998 colon
HCT-116 colon = system: HCT-116 colon
HCT-15 colon = system: HCT-15 colon
HL-60(TB) leukemia = system: HL-60(TB) leukemia
HOP-18 NSCLC = system: HOP-18 NSCLC
HOP-62 NSCLC = system: HOP-62 NSCLC
HOP-92 NSCLC = system: HOP-92 NSCLC
HT29 colon = system: HT29 colon
K-562 leukemia = system: K-562 leukemia
KM12 colon = system: KM12 colon
LOX IMVI melanoma = system: LOX IMVI melanoma
M14 melanoma = system: M14 melanoma
M19-MEL melanoma = system: M19-MEL melanoma
MOLT-4 leukemia = system: MOLT-4 leukemia
NCI-H226 lung = system: NCI-H226 lung
NCI-H23 lung = system: NCI-H23 lung
NCI-H460 lung = system: NCI-H460 lung
OVCAR-3 ovarian = system: OVCAR-3 ovarian
OVCAR-4 ovarian = system: OVCAR-4 ovarian
OVCAR-5 ovarian = system: OVCAR-5 ovarian
OVCAR-8 ovarian = system: OVCAR-8 ovarian
RXF 393 renal = system: RXF 393 renal
SF-268 CNS = system: SF-268 CNS
SF-295 CNS = system: SF-295 CNS
SF-539 CNS = system: SF-539 CNS
SK-MEL-2 melanoma = system: SK-MEL-2 melanoma
SK-MEL-28 melanoma = system: SK-MEL-28 melanoma
SK-MEL-5 melanoma = system: SK-MEL-5 melanoma
SK-OV-3 ovarian = system: SK-OV-3 ovarian
SN12C renal = system: SN12C renal
SNB-19 CNS = system: SNB-19 CNS
SNB-75 CNS = system: SNB-75 CNS
SNB-78 CNS = system: SNB-78 CNS
SW-620 colon = system: SW-620 colon
TK-10 renal = system: TK-10 renal
U251 CNS = system: U251 CNS
UACC-257 melanoma = system: UACC-257 melanoma
UACC-62 melanoma = system: UACC-62 melanoma
UO-31 renal = system: UO-31 renal
RPMI-8226 leukemia = system: RPMI-8226 leukemia
ACHN renal = system: ACHN renal
IGROV1 ovarian = system: IGROV1 ovarian
KM20L2 colon = system: KM20L2 colon
LXFL 529 NSCLC = system: LXFL 529 NSCLC
MALME-3M melanoma = system: MALME-3M melanoma
NCI-H522 lung = system: NCI-H522 lung
SR leukemia = system: SR leukemia

Structure (SMILES): CN(C)CCNC(=O)c1cccc2nc3ccc4ccccc4c3nc12
- TGI (786-0 renal): 1.99 µM
- TGI (A498 renal): 0.241 µM
- TGI (A549 NSCLC): 0.253 µM
- TGI (CAKI-1 renal): 0.541 µM
- TGI (CCRF-CEM leukemia): 1.34 µM
- TGI (COLO 205 colon): 0.206 µM
- TGI (DLD-1 colon): 1.46 µM
- TGI (DMS 114 small cell lung): 0.293 µM
- TGI (DMS 273 small cell lung): 0.246 µM
- TGI (EKVX NSCLC): 0.468 µM
- TGI (HCC-2998 colon): 0.282 µM
- TGI (HCT-116 colon): 0.205 µM
- TGI (HCT-15 colon): 0.468 µM
- TGI (HL-60(TB) leukemia): 0.494 µM
- TGI (HOP-18 NSCLC): 0.446 µM
- TGI (HOP-62 NSCLC): 0.352 µM
- TGI (HOP-92 NSCLC): 0.392 µM
- TGI (HT29 colon): 1.25 µM
- TGI (K-562 leukemia): 25.6 µM
- TGI (KM12 colon): 0.876 µM
- TGI (LOX IMVI melanoma): 0.228 µM
- TGI (M14 melanoma): 1.14 µM
- TGI (M19-MEL melanoma): 0.224 µM
- TGI (MOLT-4 leukemia): 0.124 µM
- TGI (NCI-H226 lung): 0.513 µM
- TGI (NCI-H23 lung): 0.221 µM
- TGI (NCI-H460 lung): 0.135 µM
- TGI (OVCAR-3 ovarian): 0.53 µM
- TGI (OVCAR-4 ovarian): 1.02 µM
- TGI (OVCAR-5 ovarian): 0.55 µM
- TGI (OVCAR-8 ovarian): 0.284 µM
- TGI (RXF 393 renal): 0.198 µM
- TGI (SF-268 CNS): 0.675 µM
- TGI (SF-295 CNS): 0.53 µM
- TGI (SF-539 CNS): 0.271 µM
- TGI (SK-MEL-2 melanoma): 0.335 µM
- TGI (SK-MEL-28 melanoma): 1.05 µM
- TGI (SK-MEL-5 melanoma): 0.236 µM
- TGI (SK-OV-3 ovarian): 2.06 µM
- TGI (SN12C renal): 0.342 µM
- TGI (SNB-19 CNS): 0.921 µM
- TGI (SNB-75 CNS): 0.517 µM
- TGI (SNB-78 CNS): 10 µM
- TGI (SW-620 colon): 0.313 µM
- TGI (TK-10 renal): 0.574 µM
- TGI (U251 CNS): 0.665 µM
- TGI (UACC-257 melanoma): 0.531 µM
- TGI (UACC-62 melanoma): 0.256 µM
- TGI (UO-31 renal): 0.433 µM

Structure (SMILES): Cc1c2cc[n+](COC(=O)c3ccccc3)cc2c(C)c2c1[nH]c1ccccc12
- TGI (A498 renal): 2.48 µM
- TGI (CCRF-CEM leukemia): 2.91 µM
- TGI (HL-60(TB) leukemia): 2.72 µM
- TGI (HOP-18 NSCLC): 1.93 µM
- TGI (K-562 leukemia): 1.52 µM
- TGI (MOLT-4 leukemia): 1.59 µM
- TGI (OVCAR-5 ovarian): 2.39 µM
- TGI (OVCAR-8 ovarian): 2.11 µM
- TGI (RPMI-8226 leukemia): 2.92 µM
- TGI (SF-539 CNS): 1.48 µM
- TGI (SN12C renal): 1.79 µM
- TGI (SNB-19 CNS): 52.6 µM
- TGI (UO-31 renal): 4.82 µM

Structure (SMILES): CC(=O)OC1C=CC2CCN3C(=O)c4cc5c(cc4[C@H]1C23)OCO5 (stereo not given in full)
- TGI (786-0 renal): > 100 µM
- TGI (A549 NSCLC): > 100 µM
- TGI (ACHN renal): > 100 µM
- TGI (CCRF-CEM leukemia): > 100 µM
- TGI (COLO 205 colon): > 100 µM
- TGI (DLD-1 colon): > 100 µM
- TGI (DMS 114 small cell lung): > 100 µM
- TGI (DMS 273 small cell lung): > 100 µM
- TGI (EKVX NSCLC): > 100 µM
- TGI (HCT-116 colon): > 100 µM
- TGI (HCT-15 colon): > 100 µM
- TGI (HL-60(TB) leukemia): > 100 µM
- TGI (HOP-62 NSCLC): > 100 µM
- TGI (HT29 colon): > 100 µM
- TGI (IGROV1 ovarian): > 100 µM
- TGI (K-562 leukemia): > 100 µM
- TGI (KM12 colon): > 100 µM
- TGI (KM20L2 colon): > 100 µM
- TGI (LOX IMVI melanoma): > 100 µM
- TGI (LXFL 529 NSCLC): > 100 µM
- TGI (M14 melanoma): > 100 µM
- TGI (M19-MEL melanoma): > 100 µM
- TGI (MALME-3M melanoma): > 100 µM
- TGI (MOLT-4 leukemia): > 100 µM
- TGI (NCI-H226 lung): > 100 µM
- TGI (NCI-H23 lung): > 100 µM
- TGI (NCI-H460 lung): > 100 µM
- TGI (NCI-H522 lung): > 100 µM
- TGI (OVCAR-3 ovarian): > 100 µM
- TGI (OVCAR-8 ovarian): > 100 µM
- TGI (RPMI-8226 leukemia): > 100 µM
- TGI (RXF 393 renal): > 100 µM
- TGI (SF-268 CNS): > 100 µM
- TGI (SF-295 CNS): > 100 µM
- TGI (SF-539 CNS): > 100 µM
- TGI (SK-MEL-28 melanoma): > 100 µM
- TGI (SK-OV-3 ovarian): > 100 µM
- TGI (SN12C renal): > 100 µM
- TGI (SNB-19 CNS): > 100 µM
- TGI (SNB-75 CNS): > 100 µM
- TGI (SNB-78 CNS): > 100 µM
- TGI (SR leukemia): > 100 µM
- TGI (SW-620 colon): > 100 µM
- TGI (TK-10 renal): > 100 µM
- TGI (U251 CNS): > 100 µM
- TGI (UACC-257 melanoma): > 100 µM
- TGI (UACC-62 melanoma): > 100 µM
- TGI (UO-31 renal): > 100 µM
